Results taken from the NIST ThermoML archive (doi:10.1021/je100287g).
Numbers after ± are expanded uncertainties.

Assay: cn = amount concentration of the nth substance listed, in mol/dm3
Conditions: 101 kPa, Liquid, digital conductivity meter (CM-180, Elico India)

Nc1ccc(S(=O)(=O)[N-]c2nccs2)cc1.[Na+] [sodium ((4-aminophenyl)sulfonyl)(thiazol-2-yl)amide] + O
electrical conductivity (283 K, c1 = 0.001): 0.0053 ± 0.0019 S/m
electrical conductivity (283 K, c1 = 0.002): 0.0101 ± 0.0018 S/m
electrical conductivity (283 K, c1 = 0.004): 0.0189 ± 0.0018 S/m
electrical conductivity (283 K, c1 = 0.006): 0.0281 ± 0.0018 S/m
electrical conductivity (283 K, c1 = 0.008): 0.0366 ± 0.0019 S/m
electrical conductivity (283 K, c1 = 0.01): 0.0468 ± 0.002 S/m
electrical conductivity (293 K, c1 = 0.001): 0.0064 ± 0.0024 S/m
electrical conductivity (293 K, c1 = 0.002): 0.0124 ± 0.0022 S/m
electrical conductivity (293 K, c1 = 0.004): 0.0233 ± 0.0022 S/m
electrical conductivity (293 K, c1 = 0.006): 0.0344 ± 0.0021 S/m
electrical conductivity (293 K, c1 = 0.008): 0.0447 ± 0.0023 S/m
electrical conductivity (293 K, c1 = 0.01): 0.0574 ± 0.0027 S/m
electrical conductivity (303 K, c1 = 0.001): 0.0078 ± 0.0029 S/m
electrical conductivity (303 K, c1 = 0.002): 0.0151 ± 0.0028 S/m
electrical conductivity (303 K, c1 = 0.004): 0.0288 ± 0.0027 S/m
electrical conductivity (303 K, c1 = 0.006): 0.0423 ± 0.0026 S/m
electrical conductivity (303 K, c1 = 0.008): 0.0545 ± 0.0028 S/m
electrical conductivity (303 K, c1 = 0.01): 0.07 ± 0.0034 S/m
electrical conductivity (313 K, c1 = 0.001): 0.00967 ± 0.0039 S/m
electrical conductivity (313 K, c1 = 0.002): 0.0195 ± 0.0034 S/m
electrical conductivity (313 K, c1 = 0.004): 0.0353 ± 0.0032 S/m
electrical conductivity (313 K, c1 = 0.006): 0.0516 ± 0.0031 S/m
electrical conductivity (313 K, c1 = 0.008): 0.0661 ± 0.0035 S/m
electrical conductivity (313 K, c1 = 0.01): 0.0866 ± 0.0041 S/m
